Laboratory results published in PubChem BioAssay AID1259407 (Chemical Carcinogenesis Research Information System (CCRIS), 2018).
Active and inactive are the calls of the source. No rule for the calls is given here.

System: CCRIS mutagenicity, Ames/micronucleus/aberration tests
Assay: CCRIS mutagenicity studies
[1] = Test System: AMES SALMONELLA TYPHIMURIUM, Strain/Indicator: TA98, Metabolic Activation: HAMSTER, LIVER, S-9, AROCLOR 1254 (30%), Method: PREINCUBATION
[2] = Test System: AMES SALMONELLA TYPHIMURIUM, Strain/Indicator: TA98, Metabolic Activation: NONE, Method: PREINCUBATION
[3] = Test System: AMES SALMONELLA TYPHIMURIUM, Strain/Indicator: TA98, Metabolic Activation: RAT, LIVER, S-9, AROCLOR 1254 (30%), Method: PREINCUBATION
[4] = Test System: AMES SALMONELLA TYPHIMURIUM, Strain/Indicator: TA100, Metabolic Activation: HAMSTER, LIVER, S-9, AROCLOR 1254 (30%), Method: PREINCUBATION
[5] = Test System: AMES SALMONELLA TYPHIMURIUM, Strain/Indicator: TA100, Metabolic Activation: NONE, Method: PREINCUBATION
[6] = Test System: AMES SALMONELLA TYPHIMURIUM, Strain/Indicator: TA100, Metabolic Activation: RAT, LIVER, S-9, AROCLOR 1254 (30%), Method: PREINCUBATION
[7] = Test System: AMES SALMONELLA TYPHIMURIUM, Strain/Indicator: TA98, Metabolic Activation: NONE, Method: STANDARD PLATE
[8] = Test System: AMES SALMONELLA TYPHIMURIUM, Strain/Indicator: TA100, Metabolic Activation: NONE, Method: STANDARD PLATE

COc1ccc(N)c(C)c1
mutagenic call [1]: inactive; negative
mutagenic call [2]: inactive; negative
mutagenic call [3]: inactive; negative
mutagenic call [4]: active; positive
mutagenic call [5]: inactive; negative
mutagenic call [6]: inactive; negative
mutagenic call (Test System: E. COLI, Strain/Indicator: WP2 UVRA, Metabolic Activation: HAMSTER, LIVER, S-9, AROCLOR 1254, Method: STANDARD PLATE): inactive; negative
mutagenic call (Test System: E. COLI, Strain/Indicator: WP2 UVRA, Metabolic Activation: HAMSTER, LIVER, S-9, Method: STANDARD PLATE): inactive; negative
mutagenic call (Test System: E. COLI, Strain/Indicator: WP2 UVRA, Metabolic Activation: MOUSE, LIVER, S-9, AROCLOR 1254, Method: STANDARD PLATE): inactive; negative
mutagenic call (Test System: E. COLI, Strain/Indicator: WP2 UVRA, Metabolic Activation: MOUSE, LIVER, S-9, Method: STANDARD PLATE): inactive; negative
mutagenic call (Test System: E. COLI, Strain/Indicator: WP2 UVRA, Metabolic Activation: NONE, Method: STANDARD PLATE): inactive; negative
mutagenic call (Test System: E. COLI, Strain/Indicator: WP2 UVRA, Metabolic Activation: RAT, LIVER, S-9, AROCLOR 1254, Method: STANDARD PLATE): inactive; negative
mutagenic call (Test System: E. COLI, Strain/Indicator: WP2 UVRA, Metabolic Activation: RAT, LIVER, S-9, Method: STANDARD PLATE): inactive; negative

Nc1ccc(N)c(S(=O)(=O)O)c1
mutagenic call [2]: inactive; negative
mutagenic call (Test System: AMES SALMONELLA TYPHIMURIUM, Strain/Indicator: TA98, Metabolic Activation: RAT, LIVER, S-9, AROCLOR 1254, Method: PREINCUBATION): inactive; negative
mutagenic call [5]: inactive; negative
mutagenic call (Test System: AMES SALMONELLA TYPHIMURIUM, Strain/Indicator: TA100, Metabolic Activation: RAT, LIVER, S-9, AROCLOR 1254, Method: PREINCUBATION): inactive; negative
mutagenic call (Test System: UDS RODENT HEPATOCYTES, Strain/Indicator: THY INCORP (NON-S-PHASE), Metabolic Activation: NONE, Method: AUTORADIOGRAPHY): active; positive

FC(Cl)C(F)(F)C(F)(F)Cl (centres undefined)
mutagenic call [7]: inactive; negative
mutagenic call (Test System: AMES SALMONELLA TYPHIMURIUM, Strain/Indicator: TA98, Metabolic Activation: RAT LIVER S-9, PHENOBARBITAL, 5,6-BENZOFLAVONE, Method: STANDARD PLATE): inactive; negative
mutagenic call [8]: inactive; negative
mutagenic call (Test System: AMES SALMONELLA TYPHIMURIUM, Strain/Indicator: TA100, Metabolic Activation: RAT LIVER S-9, PHENOBARBITAL, 5,6-BENZOFLAVONE, Method: STANDARD PLATE): inactive; negative
mutagenic call (Test System: AMES SALMONELLA TYPHIMURIUM, Strain/Indicator: TA1535, Metabolic Activation: NONE, Method: STANDARD PLATE): inactive; negative
mutagenic call (Test System: AMES SALMONELLA TYPHIMURIUM, Strain/Indicator: TA1535, Metabolic Activation: RAT LIVER S-9, PHENOBARBITAL, 5,6-BENZOFLAVONE, Method: STANDARD PLATE): inactive; negative
mutagenic call (Test System: AMES SALMONELLA TYPHIMURIUM, Strain/Indicator: TA1537, Metabolic Activation: NONE, Method: STANDARD PLATE): inactive; negative
mutagenic call (Test System: AMES SALMONELLA TYPHIMURIUM, Strain/Indicator: TA1537, Metabolic Activation: RAT LIVER S-9, PHENOBARBITAL, 5,6-BENZOFLAVONE, Method: STANDARD PLATE): inactive; negative
mutagenic call (Test System: ESCHERICHIA COLI, Strain/Indicator: WP2 UVR A, Metabolic Activation: NONE, Method: STANDARD PLATE): inactive; negative
mutagenic call (Test System: ESCHERICHIA COLI, Strain/Indicator: WP2 UVR A, Metabolic Activation: RAT LIVER S-9, PHENOBARBITAL, 5,6-BENZOFLAVONE, Method: STANDARD PLATE): inactive; negative
mutagenic call (Test System: UDS RAT HEPATOCYTES IN VIVO, Strain/Indicator: THYMIDINE INCORPORATION, Metabolic Activation: NONE, Method: INHALATION (6HR, NOSE-ONLY, 2-OR 16-HR HARVEST)/AUTORADIOGRAPHY): inactive; negative

O=c1[nH]c(=O)n([C@H]2C[C@H](O)[C@@H](CO)O2)cc1Br
mutagenic call [7]: inactive; negative
mutagenic call (Test System: AMES SALMONELLA TYPHIMURIUM, Strain/Indicator: TA98, Metabolic Activation: S-9, Method: STANDARD PLATE): inactive; negative
mutagenic call [8]: inactive; negative
mutagenic call (Test System: AMES SALMONELLA TYPHIMURIUM, Strain/Indicator: TA100, Metabolic Activation: S-9, Method: STANDARD PLATE): inactive; negative
mutagenic call (Test System: AMES SALMONELLA TYPHIMURIUM, Strain/Indicator: TA1537, Metabolic Activation: S-9, Method: STANDARD PLATE): inactive; negative
mutagenic call (Test System: CHINESE HAMSTER V-79, Strain/Indicator: V-79/6-THIOGUANINE, Metabolic Activation: NONE, Method: STANDARD PLATE): active; positive
mutagenic call (Test System: CHINESE HAMSTER V-79, Strain/Indicator: V-79/8-AZAGUANINE, Metabolic Activation: NONE, Method: STANDARD PLATE): active; positive
mutagenic call (Test System: E. COLI, Strain/Indicator: WP2 (HCR), Metabolic Activation: NONE, Method: STANDARD PLATE): inactive; negative
mutagenic call (Test System: E. COLI, Strain/Indicator: WP2 (HCR), Metabolic Activation: S-9, Method: STANDARD PLATE): inactive; negative

CCC(Cl)C(=O)O (centres undefined)
mutagenic call (End Point: IN VITRO CHROMOSOMAL ABERRATIONS, Test System: CHL CELLS, Metabolic Activation: RAT, LIVER, S-9, SODIUM PHENOBARBITAL AND 5,6-BENZOFLAVONE): inactive; negative
mutagenic call (End Point: IN VITRO CHROMOSOMAL ABERRATIONS, Test System: CHL/IU CELLS, Metabolic Activation: NONE): active; positive (structural changes)
mutagenic call (End Point: IN VITRO MICRONUCLEUS, Test System: CHL/IU CELLS, Metabolic Activation: NONE): active; positive

COc1cc(N)ccc1C
mutagenic call [1]: active; positive
mutagenic call [2]: inactive; negative
mutagenic call [3]: active; positive
mutagenic call [4]: active; positive
mutagenic call [5]: inactive; negative
mutagenic call [6]: active; positive

Cc1c2ccccc2c(CBr)c2c1ccc1ccccc12
mutagenic call [7]: active; positive
mutagenic call [8]: active; positive
